These results are taken from ChEMBL document CHEMBL1201862, “PubChem BioAssay data set” (2004).

Among the test systems are Hs-578T; HT-29; MCF7; NCI-H226; Malme-3M; DU-145; OVCAR-5; HOP-62; ACHN; NCI/ADR-RES; KM12; M14; HCC 2998; COLO 205; NCI-H522; MDA-N; SN12C; A498; SF-539; MDA-MB-231.
Common to all, as to assay: inhibition of tumour cell growth, NCI panel, 48 h

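Dose response: 5 concentrations. Exposure: 48 h. Format: 96-well plates. Endpoint: linear interpolation; highest concentration if not reached. Abbreviation: GI50, concentration required for 50% inhibition of growth.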 The source made the active and inactive calls. No stated cut-off is given here; in the data, active = GI50 up to about 1.1 µM and inactive = higher. Bounds are passed on as bounds.

`COc1cccc(NC(=O)CC(=O)N2N=C(C)C(/N=N/c3ccc(S(=O)(=O)CCOS(=O)(=O)O)cc3)C2=O)c1` (stereo not given): the GI50 is 14 µM (inactive) in the test on Hs-578T; 3.76 µM (inactive) in the test on HT-29; 2.09 µM (inactive) in the test with MCF7; 4.66 µM (inactive) in the test with NCI-H226; 11.1 µM (inactive) with Malme-3M; 14.8 µM (inactive) in the test with DU-145. Moreover, the GI50 in the test on OVCAR-5 is 29.3 µM (inactive); in the test on HOP-62, 13 µM (inactive); in the test with ACHN, 3.99 µM (inactive); with NCI/ADR-RES it was 4.2 µM (inactive); with KM12, 11.6 µM (inactive); in the test on M14, 5.83 µM (inactive). The GI50 with HCC 2998 was 15.5 µM (inactive); in the test on COLO 205 it was 7.1 µM (inactive); in the test on NCI-H522 it was 0.796 µM (active); with MDA-N, 3.69 µM (inactive); with SN12C it was 5.05 µM (inactive); with A498, 10.8 µM (inactive). Moreover, the GI50 in the test with SF-539 was 12.5 µM (inactive); with MDA-MB-231, 4.63 µM (inactive).
Turning to `CC(C)N(CCCNc1c2ccccc2nc2cccc([N+](=O)[O-])c12)C(C)C`, the GI50 in the test with Hs-578T is < 0.0257 µM (active); in the test on HT-29, < 0.01 µM (active); with MCF7, 0.0114 µM (active); in the test with NCI-H226, 0.0481 µM (active); with Malme-3M it was < 0.0214 µM (active); with DU-145, < 0.01 µM (active). Moreover, the GI50 was < 0.0191 µM (active) in the test with OVCAR-5; < 0.0191 µM (active) with HOP-62; < 0.0126 µM (active) in the test on ACHN; 0.986 µM (active) in the test with NCI/ADR-RES; < 0.0188 µM (active) in the test with KM12; 0.0125 µM (active) with M14. The GI50 with HCC 2998 is < 0.01 µM (active); with COLO 205 it was 0.0101 µM (active); with NCI-H522, 0.0104 µM (active); in the test on MDA-N, 0.0131 µM (active); with SN12C, < 0.0165 µM (active); with A498 it was 0.0196 µM (active). The GI50 in the test on SF-539 was < 0.0216 µM (active); in the test with MDA-MB-231, < 0.01 µM (active).
For the molecule `O=C(/C=C/c1ccsc1)c1cccs1`, the GI50 was 40.3 µM (inactive) in the test on Hs-578T; 36.9 µM (inactive) in the test with HT-29; 17 µM (inactive) with MCF7; > 100 µM (inactive) with NCI-H226; 50 µM (inactive) in the test on Malme-3M; > 100 µM (inactive) in the test with DU-145. Further, the GI50 with OVCAR-5 was 44.1 µM (inactive); with HOP-62, > 100 µM (inactive); in the test on ACHN, 52.1 µM (inactive); in the test on NCI/ADR-RES, 20.7 µM (inactive); in the test on KM12 it was 19.4 µM (inactive); in the test on M14, 22.8 µM (inactive). In addition, the GI50 in the test with HCC 2998 is 19.7 µM (inactive); with COLO 205 it was 34.1 µM (inactive); in the test on NCI-H522 it was 18.7 µM (inactive); with MDA-N it was 35 µM (inactive); with SN12C, 19.5 µM (inactive); with A498, > 100 µM (inactive). Also, the figures for the GI50 in the test with SF-539 and in the test on MDA-MB-231 were 32.9 µM (inactive) and 36 µM (inactive), respectively.
`CCCC(=O)[O-].[Na+]` [SODIUM BUTYRATE]: the GI50 is 251 µM (inactive) in the test with Hs-578T; 4000 µM (inactive) in the test with HT-29; 1000 µM (inactive) in the test on MCF7; 6250 µM (inactive) with NCI-H226; 543 µM (inactive) in the test on Malme-3M; 2370 µM (inactive) with DU-145. The GI50 in the test on OVCAR-5 is 7980 µM (inactive); in the test with HOP-62, 7210 µM (inactive); in the test with ACHN, 4470 µM (inactive); with NCI/ADR-RES, 843 µM (inactive); in the test on KM12, 9440 µM (inactive); in the test with M14 it was 5460 µM (inactive). Also, the GI50 in the test on HCC 2998 was 400 µM (inactive); in the test on COLO 205, 533 µM (inactive); in the test with NCI-H522 it was 3440 µM (inactive); in the test with MDA-N it was 3580 µM (inactive); in the test with SN12C, 5310 µM (inactive); in the test on A498 it was 4400 µM (inactive). Moreover, the values for the GI50 with SF-539 and with MDA-MB-231 were 3000 µM (inactive) and 5710 µM (inactive), respectively.
